Measurements from patent US6852735B1, “Siastatin B derivatives having a glycosidase inhibitory activity and processes for producing the same” (Zaidan Hojin Biseibutsu Kagaku Kenkyu Kai, priority 1998, dated 2005).

Target: T1, α-D-mannosidase (from jack bean) (Canavalia ensiformis, UniProt C0HJB3)
T1 sequence (C0HJB3 1-981): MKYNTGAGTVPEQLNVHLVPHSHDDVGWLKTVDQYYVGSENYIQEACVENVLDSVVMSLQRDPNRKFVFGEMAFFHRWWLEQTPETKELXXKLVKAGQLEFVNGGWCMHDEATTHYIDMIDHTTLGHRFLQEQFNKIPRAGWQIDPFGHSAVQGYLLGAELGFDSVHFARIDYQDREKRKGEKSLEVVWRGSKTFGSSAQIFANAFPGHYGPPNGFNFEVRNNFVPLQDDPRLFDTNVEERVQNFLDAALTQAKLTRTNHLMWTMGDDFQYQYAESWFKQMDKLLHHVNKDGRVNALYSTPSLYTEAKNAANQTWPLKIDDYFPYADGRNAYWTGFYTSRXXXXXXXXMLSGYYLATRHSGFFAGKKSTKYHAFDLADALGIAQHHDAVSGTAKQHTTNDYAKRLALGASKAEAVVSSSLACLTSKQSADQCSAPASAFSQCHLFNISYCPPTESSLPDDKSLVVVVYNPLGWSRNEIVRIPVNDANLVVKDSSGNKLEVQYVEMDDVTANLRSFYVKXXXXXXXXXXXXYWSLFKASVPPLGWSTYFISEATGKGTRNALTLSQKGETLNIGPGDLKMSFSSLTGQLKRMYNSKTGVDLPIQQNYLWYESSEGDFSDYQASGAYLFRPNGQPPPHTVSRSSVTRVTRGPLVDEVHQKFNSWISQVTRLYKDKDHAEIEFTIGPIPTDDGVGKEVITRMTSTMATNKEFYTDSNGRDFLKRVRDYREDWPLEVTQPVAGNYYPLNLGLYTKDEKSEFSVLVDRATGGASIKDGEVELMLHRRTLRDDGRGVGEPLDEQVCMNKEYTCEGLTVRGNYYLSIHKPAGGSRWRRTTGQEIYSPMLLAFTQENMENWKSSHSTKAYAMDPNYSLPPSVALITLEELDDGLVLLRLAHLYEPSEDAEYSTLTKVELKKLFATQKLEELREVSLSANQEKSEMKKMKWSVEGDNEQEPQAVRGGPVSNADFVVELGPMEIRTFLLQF
Assay: α-mannosidase inhibition (Test Example 5)
Assay type: biochemical
Conditions: for IC50: α-D-mannosidase from jack bean, substrate p-nitrophenyl-α-D-mannoside, sodium acetate buffer pH 4.5, read-out: 50% inhibiory concentration (IC50) Enzyme G (converted); for inhibition of α-D-mannosidase, in words: summary of Table 1
Method: Thus, 0.5 mL of 0.025M citrate-phosphate buffer (pH 4.0), 0.1 mL of the same buffer containing 10 mM p-nitro-phenyl-N-acetyl-α-D-galactosaminide dissolved therein, and 0.1 mL of either water or an aqueous solution containing as the test compound any one of the compounds of the formulae (I), (V) and (X) according to this invention were mixed with each other and pre-incubated in a 96-wells titer plate at 37° C. for 10 minutes. After the completion of the pre-incubation, to the pre-incubated mixture was added 0.01 mL of 0.025 M citrate-phosphate buffer containing α-N-acetyl-galactosaminidase originated from chicken liver (a product of Sigma Company) which was dissolved in said buffer as a glycosidase to be tested. Thereafter, the enzymatic reaction was conducted at 37° C. for 30 minutes.
After the enzymatic reaction, to the reaction solution was added 1.0 mL of 0.3M glycine—sodium hydroxide buffer (pH 10.5), in order to terminate the enzymatic reaction. Thereafter, the absorbance [designated as value (a)] of light at 405 nm of the resulting reaction solution was measured. Concurrently, measurement was made of the absorbance [designated as value (b)] at 405 nm of the reaction solution as obtained in the control test where the enzymatic reaction was conducted without addition of the test compound. Further, measurements were made of the absorbance [designated as values (a′)] and the absorbance [[designated as values (b′)] at 405 nm of the solutions as obtained in the blank test and the control test, respectively, where the enzymatic reaction was not conducted in the assay test. The rate of inhibition to […] was calculated by the equation: [1-(a-a′)/(b-b′)]×100.
The test results obtained are summarized as IC50 value in Table 1 below.
This Test Example is a test example for determining the α-mannosidase or β-mannosidase-inhibitory activity of the compounds according to this invention.
The evaluation of the β-mannosidase-inhibitory activity was conducted according to a modification of the method described in the “Journal of Biological Chemistry”, 242, p.5474 (1967).
Namely, the test was conducted in the same manner as the test for the enzyme-inhibitory activity test described in Test Example 1, but with using α-mannosidase from jack bean or β-mannosidase from snail (both enzymes are products of Sigma Company) as the glycosidase enzyme, with using 0.05 M sodium acetate—acetate buffer (pH 4.5) as the buffer, and with using p-nitrophenyl-α-D-mannoside or p-nitrophenyl-β-D-mannoside as the substrate. Furthermore, absorbances of light were measured in the same manner as in Test Example 1. IC50 values of the test compound capable of giving the 50% inhibition to the enzymes were calculated.

For `O=C(N[C@H]1NC[C@H](CO)[C@H](O)[C@@H]1O)C(F)(F)F` [Formula (I), 6-deacetamido-3-decarboxy-3-hydroxymethyl-6-trifluoroacetamido-siastain B], the IC50 was over 387 µM.
With `CC(=O)NC1NCC(CO)C(O)C1O` (stereo not drawn) [Formula (V), 3-decarboxy-4-epi-3-hydroxymethyl-siastain B] the “inhibition of α-D-mannosidase, in words” value was “inhibit strongly” and the IC50 was 318 µM.
For `O=C(N[C@H]1NC[C@H](CO)[C@@H](O)[C@@H]1O)C(F)(F)F` [Formula (X), 6-deacetamido-3-decarboxy-4-epi-3-hydroxymethyl-6-trifluoroacetamido-siastain B], the “inhibition of α-D-mannosidase, in words” value was “inhibit strongly” and the IC50 was 2.9 µM.
